Test results reported in patent US20210145775A1, “Treatment of intestinal barrier dysfunction and associated diseases” (CymaBay Therapeutics, Inc., priority 2019, published 2021).

How the values were obtained:
[1] = tested on: wild-type female C57BL/6 mice; experiment: Preclinical Lieber-DeCarli ethanol diet mouse model (alcoholic liver disease / intestinal barrier function); type: in vivo
From the text: Age-matched wild-type female C57BL/6 mice (Charles River, Wilmington, Mass.), 8-9 weeks old at the initiation of the study, were used.
The Lieber-DeCarli ethanol diet was originally developed by Charles Lieber and Leonore DeCarli in 1963. This diet allows for the prolonged exposure of ethanol in a rodent model and allows for modification to calories provided by ethanol. […] The caloric intake from ethanol was 0% on day 1, 10% on days 2 and 3, 20% on days 4 and 5, 30% from day 6 until the end of 6 weeks, and 36% for the last 2 weeks, for a total in-life time of eight weeks. The ethanol-fed mice also received one bolus dose of 33% v/v ethanol at 5 g/Kg on the last in-life day. The control diet contained an isocaloric substitution of isomaltose for the ethanol. […] In the prevention portions of the study, including with the control diet, seladelpar was added throughout the entire study period; in the intervention portion of the study, seladelpar was added only for the fifth through eighth weeks. Fresh feces were collected at 7.5 weeks. All mice were sacrificed after eight weeks; the ethanol-fed mice eight hours after the ethanol bolus. At sacrifice, body and liver weight were recorded; and blood/plasma, liver, gallbladder, small and large intestine (wall and contents) and cecum were harvested. Analyses included plasma ALT—to measure […]; hepatic TGs; plasma lipopolysaccharides (LPS)—to measure the extent of bacterial leakage from the intestine into the blood; fecal albumin (FA)—to measure the extent of albumin leakage from the blood into the intestine (feces); and total bile acids, measured by liquid chromatography-mass spectrometry (LC-MS) generally according to the method described in Hartmann et al., “Modulation of the Intestinal Bile Acid/Farnesoid X Receptor/Fibroblast Growth Factor 15 Axis Improves Alcoholic Liver Disease in Mice”, Hepatology, 67(6), 2150-2166 (2018).
The study results are given in the table below: standard errors of the means are in parentheses, n denotes the number of mice measured, and ANOVA denotes the significance value of an ANOVA analysis between groups 3, 4, and 5:
Formalin-fixed liver sections were stained for histological examination with hematoxylin and eosin (H+E).

[2] = tested on: male RAG2−/− mice on C57BL/6 background; experiment: Preclinical adoptive T-cell transfer colitis; type: in vivo; conditions: 10 mg/Kg/day in drinking water, day 14 to day 42
From the text: The cell donor animals are male C57BL/6 mice and the recipient animals are male RAG2^−/− mice on C57BL/6 background, aged 6-8 weeks at the start of the study. Recipient animals (20 +12 per test compound) are assigned: 5 to form a control group receiving no cell transfer or treatment, and the remainder to receive cell transfer. At day 0, the donor animals are sacrificed and spleens excised, dissociated to a single cell suspension, and the red blood cells lysed. The cell suspension is enriched for CD4+ T cells using a Miltenyi CD4+ T cell isolation kit, then further enriched for naïve CD4+ T cells using a Miltenyi naïve CD4+ T cell isolation kit. […] The animals are weighed daily and assessed visually for presence and severity of diarrhea and bloody stools, with video endoscopy on days 14, 28, and 42 to assess the severity of the colitis and score stool consistency. All animals are sacrificed at day 42 following endoscopy and samples collected: blood is collected and processed for plasma, the colon is excised, measured, rinsed, weighed, and trimmed to the most distal 5 cm, of this distal and proximal 2 cm portions are placed in formalin for histological evaluation, while the central 1 cm is snap-frozen in liquid nitrogen, and stored for analysis; and the liver is excised, weighed, snap-frozen in liquid nitrogen, and stored for analysis.

[3] = tested on: Subjects with diagnosed irritable bowel syndrome (IBS); experiment: Clinical (oral) treatment of irritable bowel syndrome; type: in vivo, human
Procedure: The subjects keep a health diary in which their symptoms of irritable bowel syndrome are recorded.

PPARα = target: T1, PPARα (Homo sapiens, UniProt Q07869); conditions: cited from earlier work
T1 sequence (Q07869 1-468): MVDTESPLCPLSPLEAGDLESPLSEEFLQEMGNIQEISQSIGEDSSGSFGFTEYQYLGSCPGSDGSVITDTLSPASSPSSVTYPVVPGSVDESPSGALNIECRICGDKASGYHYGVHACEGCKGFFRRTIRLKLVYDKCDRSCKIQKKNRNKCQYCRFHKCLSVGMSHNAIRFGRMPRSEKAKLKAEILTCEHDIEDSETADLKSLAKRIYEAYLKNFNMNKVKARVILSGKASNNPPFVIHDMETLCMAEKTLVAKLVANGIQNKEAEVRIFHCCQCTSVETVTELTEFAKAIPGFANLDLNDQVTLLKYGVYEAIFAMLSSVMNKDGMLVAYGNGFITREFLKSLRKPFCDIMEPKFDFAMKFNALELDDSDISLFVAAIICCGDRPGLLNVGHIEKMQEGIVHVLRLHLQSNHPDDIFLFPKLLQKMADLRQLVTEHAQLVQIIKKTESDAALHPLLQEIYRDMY

[4] = tested on: atherogenic diet-fed obese diabetic (Alms1 mutant (foz/foz)) mice; conditions: cited from earlier work
[5] = alcohol diet, groups 4 and 5 vs untreated group 3, ANOVA

For CCO[C@H](COc1ccc(C(F)(F)F)cc1)CSc1ccc(OCC(=O)O)c(C)c1 [seladelpar], the “liver histology (H+E)” value ([1]; alcohol diet, prevention and intervention, comparing group 3 with groups 4 and 5) was “significant reduction of steatosis and restoration of a more normal architecture”, the “serum ALT, change versus untreated” value ([1]; alcohol diet, groups 4 and 5 (prevention and intervention) vs untreated group 3, ANOVA) was “significant reductions (improvements)” and the “fecal albumin, change versus untreated” value [1, 5] was “significant reduction (improvement)”. The “hepatic TGs, change versus untreated” value [1, 5] was “significant reductions (improvements)”, the “serum LPS, change versus untreated” value [1, 5] was “significant reductions (improvements)” and the “total bile acids, change versus untreated” value [1, 5] was “significant reductions (improvements)”. The “effect on ALT, hepatic TGs, plasma LPS, FA and total bile acids (any of the above parameters)” value ([1]; control diet groups, seladelpar prevention (group 2 vs group 1)) was “did not significantly affect”, the “liver histology (H+E)” value ([1]; control diet, comparing groups 1 and 2) was “no significant change” and the “colitis (body weight, endoscopic and histologic examination)” value [2] was “ameliorates the colitis”. For the same molecule, the “IBS symptoms recorded in health diary” value ([3]; 2, 5, 10, 20, 50 or 100 mg/day oral for 12 weeks) was “general improvement in their IBS symptoms”, the “improvement of disease (management of IBS, gastrointestinal symptoms)” value ([3]; 2-100 mg/day oral for 12 weeks) was “dose-related improvement in their disease” and the “specificity for PPARδ compared with PPARα” value (PPARα) was > 600 fold. For the same molecule, the “NASH pathology (hepatic steatosis, inflammation, fibrosis)” value [4] was “improves NASH pathology”.
